The record followed here is patent US11299512B2 (priority 2016, dated 2022).

The test relates to THP1 luciferase reporter cells. As to the kind of experiment: cells. The test is classed as cell-based.
The mark [1] stands for this setting: 16 hours, read-out: THP1-ISG-Luc with PFO, EC50.
The mark [2] stands for this setting: 16 hours, read-out: THP-ISG-Luc without PFO, EC50.
Where [3] appears, read: Homo sapiens, THP-1, 16 h, read-out: THP1-ISG-Luc with PFO, EC50.
[4] abbreviates: Homo sapiens, THP-1, 16 h, read-out: THP-ISG-Luc without PFO, EC50.

pEC50: −log10 of the molar value. Where two headings read alike, the source gives them in different places. Some results are limits rather than exact numbers.

As a reminder, the pEC50 is −log10 of the EC50, conventionally taken in molar units. Regarding `Nc1nc2c(ncn2[C@@H]2O[C@@H]3COP(=O)(S)OC4C(O)[C@H](n5cnc6c(N)ncnc65)O[C@@H]4COP(=O)(S)OC2C3O)c(=O)[nH]1` (single isomer, unassigned) [Example E13], the pEC50 is 6.00 to 7.00 under setting [1] and < 4.00 under setting [2].

On to `Nc1nc2c(ncn2[C@@H]2O[C@@H]3COP(=O)(S)OC4C(O)[C@H](n5cnc6c(N)ncnc65)O[C@@H]4COP(=O)(S)OC2C3O)c(=O)[nH]1` (single isomer, unassigned) [Example E14], for which the pEC50 by setting is: under setting [1], 6.00 to 7.00; under setting [2], < 4.00.

`Nc1nc2c(ncn2[C@@H]2O[C@@H]3COP(=O)(S)O[C@@H]4C(O)[C@H](n5ccc6c(N)ncnc65)O[C@@H]4COP(=O)(S)O[C@H]2C3O)c(=O)[nH]1` (single isomer, unassigned) [Example E15]: the pEC50 is, setting by setting: under setting [3], < 6.00; under setting [4], < 4.00.

Turning to `Nc1nc2c(ncn2[C@@H]2O[C@@H]3COP(=O)(S)OC4C(O)[C@H](n5ccc6c(N)ncnc65)O[C@@H]4COP(=O)(S)OC2C3O)c(=O)[nH]1` (single isomer, unassigned) [Example E16], the pEC50 is > 7.00 under setting [1] and > 4.52 under setting [2].

Take `Nc1nc2c(ncn2[C@@H]2O[C@@H]3COP(=O)(S)OC4C(O)[C@H](n5ccc6c(N)ncnc65)O[C@@H]4COP(=O)(S)OC2C3O)c(=O)[nH]1` (single isomer, unassigned) [Example E17]: the pEC50 is, setting by setting: under setting [1], < 6.00; under setting [2], < 4.00.

For the compound `Nc1nc2c(ncn2[C@@H]2O[C@@H]3COP(=O)(S)OC4C(O)[C@H](n5ccc6c(N)ncnc65)O[C@@H]4COP(=O)(S)OC2C3O)c(=O)[nH]1` (single isomer, unassigned) [Example E18], the pEC50 reads like this: under setting [1], > 7.00; under setting [2], > 4.52.

Consider `Nc1nc2c(ccn2[C@@H]2O[C@@H]3COP(=O)(S)OC4C(O)[C@H](n5ccc6c(N)ncnc65)O[C@@H]4COP(=O)(S)OC2C3O)c(=O)[nH]1` (single isomer, unassigned) [Example E20], for which the pEC50 by setting is: under setting [3], 6.00 to 7.00; under setting [4], > 4.52.

On to `Nc1nc2c(ccn2[C@@H]2O[C@@H]3COP(=O)(S)OC4C(O)[C@H](n5ccc6c(N)ncnc65)O[C@@H]4COP(=O)(S)OC2C3O)c(=O)[nH]1` (single isomer, unassigned) [Example E21], for which the pEC50 runs as follows: under setting [1], 6.00 to 7.00; under setting [2], > 4.52.

`Nc1nc2c(ccn2[C@@H]2O[C@@H]3COP(=O)(S)OC4C(O)[C@H](n5ccc6c(N)ncnc65)O[C@@H]4COP(=O)(S)OC2C3O)c(=O)[nH]1` (single isomer, unassigned) [Example E22]: the pEC50 runs as follows: under setting [1], 6.00 to 7.00; under setting [2], > 4.52.

On to `BP1(=O)OC[C@H]2O[C@@H](n3cnc4c(N)ncnc43)C(O)[C@H]2OP(=O)(O)OC[C@H]2O[C@@H](n3cnc4c(=O)[nH]c(N)nc43)[C@@H](O1)C2O` (single isomer, unassigned) [Example E25], for which the pEC50 by setting is: under setting [3], > 7.00; under setting [4], > 4.52.

Take `Nc1nc2c(ccn2[C@@H]2O[C@@H]3COP(=O)(O)OC4C(O)[C@H](n5ccc6c(N)ncnc65)O[C@@H]4COP(=O)(O)OC2C3O)c(=O)[nH]1` (stereo in doubt) [EA1]: the negative-log EC50 (pEC50) under setting [3] is 6.00 to 7.00 and the pEC50 under setting [4] was < 4.00.

Regarding `Nc1nc2c(ncn2[C@@H]2O[C@@H]3COP(=O)(O)OC4C(O)[C@H](n5cnc6c(N)ncnc65)O[C@@H]4COP(=O)(O)OC2C3OCC(F)(F)F)c(=O)[nH]1` (stereo in doubt) [EA2], the pEC50 is, setting by setting: under setting [3], > 7.00; under setting [4], > 4.52.

In the case of `BP1(=O)OC[C@H]2O[C@@H](n3cnc4c(=O)[nH]c(N)nc43)C(OP(=O)(O)OC[C@H]3O[C@@H](n4cnc5c(N)ncnc54)C(O)C3O1)C2O` (stereo in doubt) [EA10], the pEC50 reads like this: under setting [3], > 7.00; under setting [4], > 4.52.

For `BP1(=O)OC[C@H]2O[C@@H](n3cnc4c(=O)[nH]c(N)nc43)[C@@H](OP(B)(=O)OC[C@H]3O[C@@H](n4cnc5c(N)ncnc54)[C@@H](O)C3O1)C2O` (stereo in doubt) [EA11], the pEC50 under setting [3] was > 7.00 and the pEC50 under setting [4] is > 4.52.

As to `Nc1nc2c(ccn2[C@@H]2O[C@@H]3COP(=O)(O)OC4C(O)[C@H](n5cnc6c(N)ncnc65)O[C@@H]4COP(=O)(S)OC2C3O)c(=O)[nH]1` (stereo in doubt) [EB3], the pEC50 runs as follows: under setting [3], > 7.00; under setting [4], > 4.52.

With `Nc1nc2c(ccn2[C@@H]2O[C@@H]3COP(=O)(O)OC4C(O)[C@H](n5cnc6c(NCCO)ncnc65)O[C@@H]4COP(=O)(S)OC2C3O)c(=O)[nH]1` (stereo in doubt) [EB5], the pEC50 under setting [3] was 6.00 to 7.00 and the pEC50 under setting [4] is < 4.00.

Take `Nc1nc2c(ncn2[C@@H]2O[C@@H]3COP(=O)(O)OC4C(O)[C@H](n5ccc6c(N)ncnc65)O[C@@H]4COP(=O)(O)OC2C3OCC(F)(F)F)c(=O)[nH]1` (stereo in doubt) [EC3]: the pEC50 is, setting by setting: under setting [3], 6.00 to 7.00; under setting [4], > 4.52.

In the case of `COC1C2OP(=O)(O)OC[C@H]3O[C@@H](n4cnc5c(=O)[nH]c(N)nc54)C(OP(=O)(O)OC[C@H]2O[C@H]1n1cnc2c(N)ncnc21)C3OCC(F)(F)F` (stereo in doubt) [EC10], the pEC50 is < 6.00 under setting [3] and < 4.00 under setting [4].

Consider `Nc1nc2c(ncn2[C@@H]2O[C@@H]3COP(=O)(O)OC4C(O)[C@H](n5cnc6c(N)ncnc65)O[C@@H]4COP(=O)(O)OC2C3CCO)c(=O)[nH]1` (stereo in doubt) [EC12], for which the negative-log EC50 (pEC50) by setting is: under setting [3], > 7.00; under setting [4], > 4.52.

With `Nc1nc2c(ncn2[C@@H]2O[C@@H]3COP(=O)(O)OC4C(O)[C@@H](COP(=O)(O)OC2C3OCC(F)(F)F)O[C@H]4n2cnc3c(N)ncnc32)c(=O)[nH]1` (stereo in doubt) [EC13], the pEC50 was 6.00 to 7.00 under setting [3] and > 4.52 under setting [4].

In the case of `Nc1nc2c(ncn2[C@@H]2O[C@@H]3COP(=O)(O)OC4C[C@H](n5ccc6ccccc65)O[C@@H]4COP(=O)(O)OC2C3OCC(F)(F)F)c(=O)[nH]1` (stereo in doubt) [EC16], the pEC50 by setting is: under setting [3], < 6.00; under setting [4], < 4.00.

Turning to `Nc1nc2c(ncn2[C@@H]2O[C@@H]3COP(=O)(O)OC4C[C@H](c5cccc6ccccc56)O[C@@H]4COP(=O)(O)OC2C3OCC(F)(F)F)c(=O)[nH]1` (stereo in doubt) [EC19], the pEC50 by setting is: under setting [3], < 6.00; under setting [4], < 4.00.

For the compound `Nc1nc2c(ncn2[C@@H]2O[C@@H]3COP(=O)(O)OC4C(O)[C@H](n5cnc6c(N)ncnc65)O[C@@H]4CNc4c(c(=O)c4=O)NC2C3O)c(=O)[nH]1` (stereo in doubt) [EC22], the pEC50 reads like this: under setting [3], < 6.00; under setting [4], < 4.00.

Regarding `CCCC1C2OP(=O)(O)OC[C@H]3O[C@@H](n4cnc5c(N)ncnc54)C(O)C3OP(=O)(O)OC[C@H]1O[C@H]2n1cnc2c(=O)[nH]c(N)nc21` (stereo in doubt) [EC24], the pEC50 was > 7.00 under setting [3] and > 4.52 under setting [4].

Take `Nc1nc2c(ncn2[C@@H]2O[C@@H]3COP(=O)(O)OC4C(O)[C@H](n5cnc6c5ncn5ccnc65)O[C@@H]4COP(=O)(O)OC2C3OCC(F)(F)F)c(=O)[nH]1` (stereo in doubt) [EC26]: the pEC50 is 6.00 to 7.00 under setting [3] and < 4.00 under setting [4].

Consider `Nc1nc2c(ncn2[C@@H]2O[C@@H]3COP(=O)(O)OC4C(O)[C@H](n5cnc6c(N)ncnc65)O[C@@H]4COP(=O)(O)OC2C3O)c(=O)[nH]1` (stereo in doubt) [Example E1], for which the pEC50 is, setting by setting: under setting [3], > 7.00; under setting [4], > 4.52.

With `COC1C2OP(=O)(O)OC[C@H]3O[C@@H](n4cnc5c(N)ncnc54)C(O)C3OP(=O)(O)OC[C@H]1O[C@H]2n1cnc2c(=O)[nH]c(N)nc21` (stereo in doubt) [Example E3], the pEC50 was > 7.00 under setting [3] and > 4.52 under setting [4].

As for `C#CCOc1nc(N)nc2c1ncn2[C@@H]1O[C@@H]2COP(=O)(O)OC3C(O)[C@H](n4cnc5c(N)ncnc54)O[C@@H]3COP(=O)(O)OC1C2O` (stereo in doubt) [Example E4], the pEC50 is, setting by setting: under setting [3], > 7.00; under setting [4], > 4.52.

Regarding `Nc1nc2c(ncn2[C@@H]2O[C@@H]3COP(=O)(O)OC4C(O)[C@H](n5ccc6c(N)ncnc65)O[C@@H]4COP(=O)(O)OC2C3O)c(=O)[nH]1` (stereo in doubt) [Example E5], the pEC50 runs as follows: under setting [3], < 6.00; under setting [4], < 4.00.

For `C#CCOC1[C@H]2OP(=O)(O)OC[C@H]3O[C@@H](n4cnc5c(=O)[nH]c(N)nc54)[C@@H](OP(=O)(O)OC[C@H]2O[C@H]1n1cnc2c(N)ncnc21)C3O` (stereo partly drawn) [EA3], the pEC50 is, setting by setting: under setting [3], < 6.00; under setting [4], < 4.00.

In the case of `Nc1ncnc2c1ccn2[C@@H]1O[C@@H]2COP(=O)(S)OC3C(O)[C@@H](COP(=O)(O)OC2C1O)O[C@H]3n1ccc2c(N)ncnc21` (stereo partly drawn) [EC6], the pEC50 under setting [3] is < 6.00 and the pEC50 under setting [4] was < 4.00.

Turning to `Nc1ncnc2c1ccn2[C@@H]1O[C@@H]2COP(=O)(S)OC3C(O)[C@@H](COP(=O)(O)OC2C1O)O[C@H]3n1ccc2c(N)ncnc21` (stereo partly drawn) [EC7], the pEC50 under setting [1] is < 6.00 and the pEC50 under setting [2] was < 4.00.

Regarding `Nc1nc2c(ncn2[C@@H]2O[C@@H]3COP(=O)(S)OC4C(O)[C@H](n5nnc6c(N)ncnc65)O[C@@H]4COP(=O)(S)OC2C3O)c(=O)[nH]1` (stereo partly drawn) [Example E19], the pEC50 is < 6.00 under setting [3] and < 4.00 under setting [4].

As for `Nc1nc2c(ccn2[C@@H]2O[C@@H]3COP(=O)(S)OC4[C@@H](COP(=O)(S)O[C@H]2C3O)O[C@@H](n2ccc3c(N)ncnc32)[C@H]4O)c(=O)[nH]1` (stereo partly drawn) [Example E23], the negative logarithm of the EC50 (pEC50) under setting [3] was > 7.00 and the pEC50 under setting [4] was > 4.52.

For the compound `Nc1nc2c(ncn2[C@@H]2O[C@@H]3COP(=O)(O)O[C@@H]4C(O)[C@H](n5cnc6c(N)ncnc65)O[C@@H]4COP(=O)(N4CCOCC4)OC2[C@H]3O)c(=O)[nH]1` (stereo partly drawn) [Example E24], the pEC50 was 6.00 to 7.00 (Homo sapiens, THP-1, 16 hours, read-out: THP1-ISG-Luc with PFO, EC50) and > 4.52 (Homo sapiens, THP-1, 16 hours, read-out: THP-ISG-Luc without PFO, EC50).

Turning to EC23, the pEC50 is, setting by setting: under setting [1], < 6.00; under setting [2], < 4.00.
